# Values of other authors in publication PMC11345841, “Exploring 2-Sulfonylpyrimidine Warheads as Acrylamide Surrogates for Targeted Covalent Inhibition: A BTK Story” (Journal of Medicinal Chemistry, 2024).
# Read-outs that look alike come from different tables or passages of the source.
# System: 468 human kinases
# Details: cited from earlier work; for %Control: @1000nM, ref Buhimschi et al. 2018; for Percent of Control: ref Buhimschi/Crews
compound,measurement,setting,value
"C=CC(=O)N1CCC[C@@H](n2nc(-c3ccc(Oc4ccccc4)cc3)c3c(N)ncnc32)C1 [Compound 1g, Ibrutinib, reference compound]",number of kinases with ≥90 inhibition belonging to the TK family (including BTK),1 μM,36 kinases
same,number of kinases with ≥90 inhibition out of 468,1 μM,39 kinases
same,%Control,ABL1(E255K)-phosphorylated,71%
same,%Control,ABL1(F317I)-nonphosphorylated,30%
same,%Control,ABL1(F317L)-nonphosphorylated,25%
same,%Control,ABL1(F317L)-phosphorylated,49%
same,%Control,ABL1(H396P)-nonphosphorylated,18%
same,%Control,ABL1(Q252H)-nonphosphorylated,6.4%
same,%Control,ABL1(Q252H)-phosphorylated,67%
same,%Control,ABL1(T315I)-nonphosphorylated,100%
same,%Control,ABL1-nonphosphorylated,9%
same,%Control,ABL1-phosphorylated,69%
same,%Control,ABL2,43%
same,%Control,ALK(C1156Y),91%
same,%Control,ALK(L1196M),96%
same,%Control,BMX,38%
same,%Control,BRK,1.4%
same,%Control,BTK,0%
same,%Control,CSK,2.4%
same,%Control,DDR2,100%
same,%Control,EGFR(E746-A750del),5.1%
same,%Control,EGFR(G719C),0.35%
same,%Control,EGFR(G719S),0.45%
same,%Control,"EGFR(L747-E749del, A750P)",0.3%
same,%Control,"EGFR(L747-S752del, P753S)",12%
same,%Control,"EGFR(L747-T751del,Sins)",1.4%
same,%Control,EGFR(L858R),1.4%
same,%Control,"EGFR(L858R,T790M)",6.9%
same,%Control,EGFR(L861Q),0.1%
same,%Control,EGFR(S752-I759del),0%
same,%Control,EGFR(T790M),0.15%
same,%Control,EGFR,0%
same,%Control,EPHA2,96%
same,%Control,EPHA5,100%
same,%Control,EPHA7,100%
same,%Control,EPHA8,78%
same,%Control,EPHB2,100%
same,%Control,EPHB3,89%
same,%Control,EPHB4,100%
same,%Control,EPHB6,8.6%
same,%Control,ERBB2,0%
same,%Control,ERBB3,0%
same,%Control,FAK,93%
same,%Control,FER,95%
same,%Control,FES,100%
same,%Control,FGFR1,42%
same,%Control,FGFR2,42%
same,%Control,FGFR3(G697C),35%
same,%Control,FGFR3,45%
same,%Control,FGFR4,100%
same,%Control,FGR,10%
same,%Control,FLT3(D835H),18%
same,%Control,FLT3(D835V),1.9%
same,%Control,FLT3(D835Y),44%
same,%Control,FLT3(K663Q),38%
same,%Control,FLT3(N841I),31%
same,%Control,FLT3(R834Q),54%
same,%Control,FLT3-autoinhibited,94%
same,%Control,FLT3,26%
same,%Control,FLT4,38%
same,%Control,FRK,11%
same,%Control,FYN,5.3%
same,%Control,HCK,0.3%
same,%Control,IGF1R,100%
same,%Control,INSR,87%
same,%Control,INSRR,96%
same,%Control,ITK,6.8%
same,%Control,JAK1(JH1domain-catalytic),100%
same,%Control,JAK1(JH2domain-pseudokinase),91%
same,%Control,JAK2(JH1domain-catalytic),87%
same,%Control,JAK3(JH1domain-catalytic),0%
same,%Control,KIT(A829P),21%
same,%Control,KIT(D816H),78%
same,%Control,KIT(L576P),42%
same,%Control,KIT(V559D),31%
same,%Control,"KIT(V559D,T670I)",94%
same,%Control,"KIT(V559D,V654A)",91%
same,%Control,KIT,57%
same,%Control,LCK,0.2%
same,%Control,LYN,9.5%
same,%Control,MERTK,74%
same,%Control,MET(M1250T),56%
same,%Control,MET(Y1235D),87%
same,%Control,PDGFRA,48%
same,%Control,PDGFRB,35%
same,%Control,RET(M918T),14%
same,%Control,RET(V804M),72%
same,%Control,RET,9.3%
same,%Control,ROS1,97%
same,%Control,SRC,3.2%
same,%Control,SYK,91%
same,%Control,TEC,1.9%
same,%Control,TIE1,61%
same,%Control,TIE2,58%
same,%Control,TNK1,23%
same,%Control,TNK2,35%
same,%Control,TRKB,82%
same,%Control,TXK,3.8%
same,%Control,TYK2(JH1domain-catalytic),89%
same,%Control,TYRO3,96%
same,%Control,YES,2.6%
same,%Control,ZAP70,77%
same,Percent of Control,ABL1(F317I)-nonphosphorylated,30%
same,Percent of Control,ABL1(F317I)-phosphorylated,67%
same,Percent of Control,ABL1(F317L)-nonphosphorylated,25%
same,Percent of Control,ABL1(F317L)-phosphorylated,49%
same,Percent of Control,ABL1(H396P)-nonphosphorylated,18%
same,Percent of Control,ABL1(Q252H)-nonphosphorylated,6.4%
same,Percent of Control,ABL1(Q252H)-phosphorylated,67%
same,Percent of Control,ABL1(Y253F)-phosphorylated,49%
same,Percent of Control,ABL1-nonphosphorylated,9%
same,Percent of Control,ABL2,43%
same,Percent of Control,ASK2 (MAP3K6),54%
same,Percent of Control,BLK,0.1%
same,Percent of Control,BMX,38%
same,Percent of Control,BRAF(V600E),59%
same,Percent of Control,BRK (PTK6),1.4%
same,Percent of Control,BTK,0%
same,Percent of Control,CDK2,66%
same,Percent of Control,CSK,2.4%
same,Percent of Control,CSNK1E,44%
same,Percent of Control,CTK (MATK),66%
same,Percent of Control,EGFR(E746-A750del),5.1%
same,Percent of Control,EGFR(G719C),0.35%
same,Percent of Control,EGFR(G719S),0.45%
same,Percent of Control,"EGFR(L747-E749del, A750P)",0.3%
same,Percent of Control,"EGFR(L747-S752del, P753S)",12%
same,Percent of Control,"EGFR(L747-T751del,Sins)",1.4%
same,Percent of Control,EGFR(L858R),1.4%
same,Percent of Control,"EGFR(L858R,T790M)",6.9%
same,Percent of Control,EGFR(L861Q),0.1%
same,Percent of Control,EGFR(S752-I759del),0%
same,Percent of Control,EGFR(T790M),0.15%
same,Percent of Control,EGFR,0%
same,Percent of Control,EPHB6,8.6%
same,Percent of Control,ERBB2,0%
same,Percent of Control,ERBB3,0%
same,Percent of Control,ERBB4,0%
same,Percent of Control,ERN1,38%
same,Percent of Control,FGFR1,42%
same,Percent of Control,FGFR2,42%
same,Percent of Control,FGFR3(G697C),35%
same,Percent of Control,FGFR3,45%
same,Percent of Control,FGR,10%
same,Percent of Control,FLT3(D835H),18%
same,Percent of Control,FLT3(D835V),1.9%
same,Percent of Control,FLT3(D835Y),44%
same,Percent of Control,FLT3(ITD),55%
same,Percent of Control,"FLT3(ITD,D835V)",58%
same,Percent of Control,FLT3(K663Q),38%
same,Percent of Control,FLT3(N841I),31%
same,Percent of Control,FLT3(R834Q),54%
same,Percent of Control,FLT3,26%
same,Percent of Control,FLT4,38%
same,Percent of Control,FRK,11%
same,Percent of Control,FYN,5.3%
same,Percent of Control,HCK,0.3%
same,Percent of Control,ITK,6.8%
same,Percent of Control,KIT(A829P),21%
same,Percent of Control,KIT(L576P),42%
same,Percent of Control,KIT(V559D),31%
same,Percent of Control,KIT,57%
same,Percent of Control,LATS2,66%
same,Percent of Control,LCK,0.2%
same,Percent of Control,LIMK1,41%
same,Percent of Control,LOK (STK10),41%
same,Percent of Control,LZK (MAP3K13),58%
same,Percent of Control,MAP3K2,54%
same,Percent of Control,MAP3K15,53%
same,Percent of Control,MEK1 (MAP2K1),14%
same,Percent of Control,MEK2 (MAP2K2),21%
same,Percent of Control,MEK5 (MAP2K5),0.8%
same,Percent of Control,MET(M1250T),56%
same,Percent of Control,MKK7 (MAP2K7),0.7%
same,Percent of Control,MKNK2,50%
same,Percent of Control,NDR2 (STK38L),48%
same,Percent of Control,PDGFRA,48%
same,Percent of Control,PDGFRB,35%
same,Percent of Control,RET(M918T),14%
same,Percent of Control,RET,9.3%
same,Percent of Control,RIPK2,3.7%
same,Percent of Control,RIPK5 (DSTYK),15%
same,Percent of Control,SNARK (NUAK2),68%
same,Percent of Control,SRC,3.2%
same,Percent of Control,SRMS,0%
same,Percent of Control,SRPK1,54%
same,Percent of Control,STK35,55%
same,Percent of Control,STK36,60%
same,Percent of Control,TEC,1.9%
same,Percent of Control,TIE2 (TEK),58%
same,Percent of Control,TNK1,23%
same,Percent of Control,TNK2,35%
same,Percent of Control,TNNI3K,53%
same,Percent of Control,TRKA (NTRK1),67%
same,Percent of Control,TRPM6,54%
same,Percent of Control,TTK,40%
same,Percent of Control,TXK,3.8%
same,Percent of Control,VEGFR2 (KDR),59%
same,Percent of Control,WNK2,65%
same,Percent of Control,YANK2 (STK32B),49%
same,Percent of Control,YES (YES1),2.6%
same,Percent of Control,ZAK,38%
